Where a name gives a salt, the structure may show the parent alone.
Tests used:
[1] = target: T1, S1P1 (Homo sapiens, UniProt P21453); test: Receptor binding assay, [33P]sphingosine 1-phosphate, membranes, WGA SPA beads; details: membranes from CHO cells expressing S1P1; 25 pM [33P]S1P; 60 min RT
T1 construct: expressed in transfected cells; host or cells: CHO cells (membranes)
Method: (§1) Receptor binding assay: Membranes were prepared from CHO cells expressing S1P1 or S1P3 for use in ligand and […] binding studies. Cells were suspended in 50 mM TRIS, pH 7.4, 2 mM EDTA, 250 mM Sucrose (buffer A) and 1× Complete protease inhibitor cocktail (Roche), and disrupted at 4° C. by N2 decompression using a cell disruption bomb (Parr Instrument). Following centrifugation at 1000 RPM for 10 min at 4° C., the supernatant was suspended in buffer A and centrifuged again at 19000 RPM for 60 min at 4° C. The pellet was then suspended in 10 mM HEPES, pH 7.4, 1 mM EDTA, 250 mM Sucrose (Buffer B), and 1× Complete EDTA-free protease inhibitor cocktail and homogenized using a potter. Membranes were flash frozen in liquid N2 and stored at −80° C. [33P]sphingosine 1-phosphate (3000 Ci/mmol; American Radiolabeled Chemicals, Inc.) was added to test compounds in DMSO. Membranes and WGA SPA beads (GE Healthcare) were added to give a final volume of 100 μl in 96-well plates with assay concentrations of 25 pM or 10 pM [33P]sphingosine 1-phosphate (respectively for S1P1 or S1P3), 50 mM HEPES, pH 7.5, 5 mM MgCl2, 100 mM NaCl, 0.4% fatty acid-free BSA, 1-5 μg/well of proteins and 100 μg/well of WGA SPA beads. Binding was performed for 60 min at RT on a shaker and bound radioactivity was measured on a PerkinElmer 1450 MicroBeta counter. Specific binding was calculated by subtracting remaining radioactivity in the presence of 1000-fold excess of unlabeled S1P. Binding data were analyzed using the GraphPad Prism program.

[2] = target: T1, S1P1; test: 35S-GTPγS binding, S1P1 membranes; type: biochemical; details: membranes from CHO cells expressing S1P1; 60 min 30° C.
How it was run: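 CHO-cell membranes expressing S1P1 or S1P3 (1-10 μg) incubated with compounds in 20 mM HEPES pH 7.4, 10 mM MgCl2, 140 mM NaCl, saponin, 0.2% BSA, 1.7 μM GDP and [35S]-GTPγS (20 μl of 1.5 nM added), 60 min at 30° C. Bound radioactivity expressed as % of S1P activation.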

[3] = target: T2, S1P3 (Homo sapiens, UniProt Q99500); test: 35S-GTPγS binding, S1P3 membranes; type: biochemical; details: membranes from CHO cells expressing S1P3; 60 min 30° C.
T2 construct: expressed in transfected cells; host or cells: CHO cells (membranes)
T2 sequence (Q99500 whole entry, species assumed): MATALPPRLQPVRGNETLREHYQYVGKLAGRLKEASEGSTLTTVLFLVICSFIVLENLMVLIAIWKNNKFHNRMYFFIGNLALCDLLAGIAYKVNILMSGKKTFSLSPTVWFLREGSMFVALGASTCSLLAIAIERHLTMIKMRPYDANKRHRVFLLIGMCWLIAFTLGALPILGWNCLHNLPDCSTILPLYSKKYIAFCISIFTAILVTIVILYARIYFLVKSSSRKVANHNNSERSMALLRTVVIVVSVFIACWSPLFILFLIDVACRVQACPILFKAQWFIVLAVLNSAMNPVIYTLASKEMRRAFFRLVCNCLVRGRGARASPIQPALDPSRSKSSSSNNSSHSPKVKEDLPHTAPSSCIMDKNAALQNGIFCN
Method: as §1
Measurements of ^35S-GTPγS Binding: Membranes (1 to 10 μg protein) prepared as described above, were incubated in 96-well Scintiplates (PerkinElmer) with test compounds diluted in DMSO, in 180 μl of 20 mM HEPES, pH 7.4, 10 mM MgCl2, 2 μg/well Saponin, 0.2% fatty acid free BSA (Assay buffer), 140 mM NaCl and 1.7 μM GDP. The assay was initiated with the addition of 20 μl of 1.5 nM [35S]-GTPγS (1100 Ci/mmol; GE Healthcare) in assay buffer. After 60 min incubation at 30° C. on a shaker, plates were centrifuged for 10 min at 2000 RPM. Supernatant was discarded and membrane bound radioactivity was measured on a PerkinElmer 1450 MicroBeta counter. Triplicate samples were averaged and expressed as % response relative to S1P activation in absence of compound (n=2).

T1 sequence (P21453 whole entry, species assumed): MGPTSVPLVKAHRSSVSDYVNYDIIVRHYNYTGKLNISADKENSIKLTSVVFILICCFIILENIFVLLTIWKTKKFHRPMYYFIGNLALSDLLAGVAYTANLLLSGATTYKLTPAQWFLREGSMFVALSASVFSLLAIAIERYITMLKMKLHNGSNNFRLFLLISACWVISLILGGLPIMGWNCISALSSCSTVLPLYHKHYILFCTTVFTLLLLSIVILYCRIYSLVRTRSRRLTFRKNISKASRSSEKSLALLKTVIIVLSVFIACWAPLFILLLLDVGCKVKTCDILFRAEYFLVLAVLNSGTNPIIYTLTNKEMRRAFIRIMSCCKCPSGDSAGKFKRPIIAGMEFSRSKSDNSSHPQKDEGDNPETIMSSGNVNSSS

Ki [1] [nM] | EC50 [2] [nM] | EC50 [3] [nM] | Structure (SMILES)
4 | 37.3 | 1210 | COCc1cc(-c2nc(-c3ccc(C(=O)NC(C)CC(=O)O)c(F)c3)no2)ccc1-c1ccccc1C (stereo not shown) [Example 123, 3-[(2-fluoro-4-{5-[2-(methoxymethyl)-2′-methylbiphenyl-4-yl]-1,2,4-oxadiazol-3-yl}benzoyl)amino]butanoic acid]
443 | 408 | 1770 | CCCS(=O)(=O)Nc1cc(-c2nc(-c3ccc(C(=O)O)c(F)c3)no2)ccc1N1CCCCC1C (stereo not shown) [Example 74, 2-fluoro-4-(5-{4-(2-methylpiperidin-1-yl)-3-[(propylsulfonyl)amino]phenyl}-1,2,4-oxadiazol-3-yl)benzoic acid]
30 | 60 | 615 | CCOCc1cc(-c2nc(-c3ccc(C(=O)O)c(F)c3)no2)ccc1-c1ccccc1C [Example 63, 4-{5-[2-(ethoxymethyl)-2′-methylbiphenyl-4-yl]-1,2,4-oxadiazol-3-yl}-2-fluorobenzoic acid]
1 | 4.8 | 141 | COCc1cc(-c2nc(-c3ccc(C(N)=O)cc3)no2)ccc1-c1ccccc1C [Example 178, 4-{5-[2-(methoxymethyl)-2′-methylbiphenyl-4-yl]-1,2,4-oxadiazol-3-yl}benzamide]
24 | 92 | 699 | Cc1ccccc1-c1ccc(-c2nc(-c3ccc(C(=O)O)c(F)c3)no2)cc1CN(C)C [Example 62, 4-(5-{2-[(dimethylamino)methyl]-2′-methylbiphenyl-4-yl}-1,2,4-oxadiazol-3-yl)-2-fluorobenzoic acid, Hydrochloride salt]
2.1 | 6 | 1220 | COCc1cc(-c2nc(-c3ccc(C(=O)NCCCC(=O)O)c(F)c3)no2)ccc1-c1ccccc1C [Example 127, 4-[(2-fluoro-4-{5-[2-(methoxymethyl)-2′-methylbiphenyl-4-yl]-1,2,4-oxadiazol-3-yl}benzoyl)amino]butanoic acid]
2 | 7.3 | 502 | COCc1cc(-c2nc(-c3ccc(C(=O)NCCC(=O)O)c(F)c3)no2)ccc1-c1ccccc1C [Example 119, N-(2-fluoro-4-{5-[2-(methoxymethyl)-2′-methylbiphenyl-4-yl]-1,2,4-oxadiazol-3-yl}benzoyl)-beta-alanine]
0.3 | 0.5 | 95 | COCc1cc(-c2nc(-c3cccc(CN(C)CCC(=O)O)c3)no2)ccc1-c1ccccc1C [Example 150, N-(3-{5-[2-(methoxymethyl)-2′-methylbiphenyl-4-yl]-1,2,4-oxadiazol-3-yl}benzyl)-N-methyl-beta-alanine]
26 | 34 | 2630 | COCc1cc(-c2nc(-c3ccc(C(=O)O)c(Cl)c3)no2)ccc1-c1ccccc1C [Example 69, 2-chloro-4-{5-[2-(methoxymethyl)-2′-methylbiphenyl-4-yl]-1,2,4-oxadiazol-3-yl}benzoic acid]
8 | 64 | 1940 | COCc1cc(-c2nc(-c3cc(F)c(C(=O)O)cc3F)no2)ccc1-c1ccccc1C [Example 97, 2,5-difluoro-4-{5-[2-(methoxymethyl)-2′-methylbiphenyl-4-yl]-1,2,4-oxadiazol-3-yl}benzoic acid]
10 | 18 | 1380 | COCc1cc(-c2nc(-c3ccc(C(=O)O)c(F)c3)no2)ccc1-c1cscc1C [Example 93, 2-fluoro-4-{5-[3-(methoxymethyl)-4-(4-methyl-3-thienyl)phenyl]-1,2,4-oxadiazol-3-yl}benzoic acid]
 | 168 | 6430 | Cc1ccccc1-c1ccc(-c2nc(-c3ccc(C(=O)NCC(=O)O)c(F)c3)no2)cc1C [Example 54, N-{4-[5-(2,2′-dimethylbiphenyl-4-yl)-1,2,4-oxadiazol-3-yl]-2-fluorobenzoyl}glycine]
 | 556 | 2300 | COCc1ccccc1-c1ccc(-c2nc(-c3ccc(C(=O)O)c(F)c3)no2)cc1COC [Example 85, 4-{5-[2,2′-bis(methoxymethyl)biphenyl-4-yl]-1,2,4-oxadiazol-3-yl}-2-fluorobenzoic acid]
 | 0.6 | 223 | COCc1cc(-c2nc(-c3ccc(F)c(CN(C)CC(=O)O)c3)no2)ccc1N1CCCCC1C (stereo not shown) [Example 152, N-(2-fluoro-5-{5-[3-(methoxymethyl)-4-(2-methylpiperidin-1-yl)phenyl]-1,2,4-oxadiazol-3-yl}benzyl)-N-methylglycine, Dihydrochloride salt]
6 | 4 |  | CC1CCCCN1c1ccc(-c2nc(-c3cccc(CN(C)CC(=O)O)c3)no2)cc1NS(C)(=O)=O (stereo not shown) [Example 57, N-methyl-N-[3-(5-{4-(2-methylpiperidin-1-yl)-3-[(methylsulfonyl)amino]phenyl}-1,2,4-oxadiazol-3-yl)benzyl]glycine, Hydrochloride salt]
0.9 | 2.5 |  | COCc1cc(-c2nc(-c3ccc(C(=O)NCC(=O)OC)c(F)c3)no2)ccc1-c1ccccc1C [Example 122, Methyl N-(2-fluoro-4-{5-[2-(methoxymethyl)-2′-methylbiphenyl-4-yl]-1,2,4-oxadiazol-3-yl}benzoyl)glycinate]
 | 7.8 | 219 | COCc1cc(-c2nc(-c3ccc(OCCCC(=O)O)c(F)c3)no2)ccc1-c1ccccc1C [Example 168, 4-(2-fluoro-4-{5-[2-(methoxymethyl)-2′-methylbiphenyl-4-yl]-1,2,4-oxadiazol-3-yl}phenoxy)butanoic acid]
10 | 1.6 |  | CC1CCCCN1c1ccc(-c2nc(-c3ccc(S(N)(=O)=O)cc3)no2)cc1NS(C)(=O)=O (stereo not shown) [Example 37, 4-(5-{4-(2-methylpiperidin-1-yl)-3-[(methylsulfonyl)amino]phenyl}-1,2,4-oxadiazol-3-yl)benzenesulfonamide]
 | 924 | > 30000 | COc1ccccc1-c1ccc(-c2nc(-c3ccc(C(=O)O)c(F)c3)no2)cc1C [Example 7, 2-fluoro-4-[5-(2′-methoxy-2-methylbiphenyl-4-yl)-1,2,4-oxadiazol-3-yl]benzoic acid]
4.3 | 0.7 |  | COCc1cc(-c2nc(-c3cccc(CCO)c3)no2)ccc1-c1ccccc1C [Example 190, 2-(3-{5-[2-(methoxymethyl)-2′-methylbiphenyl-4-yl]-1,2,4-oxadiazol-3-yl}phenyl)ethanol]
10 | 22.4 |  | COCc1cc(-c2nc(-c3cccc(OCC(=O)O)c3)no2)ccc1-c1ccccc1C [Example 167, (3-{5-[2-(methoxymethyl)-2′-methylbiphenyl-4-yl]-1,2,4-oxadiazol-3-yl}phenoxy)acetic acid]
 | 53 | 12600 | Cc1ccccc1-c1ccc(-c2nc(-c3ccc(C(=O)NCCC(=O)O)c(F)c3)no2)cc1C [Example 55, N-{4-[5-(2,2′-dimethylbiphenyl-4-yl)-1,2,4-oxadiazol-3-yl]-2-fluorobenzoyl}-beta-alanine]
 | 645 | > 30000 | Cc1ccccc1-c1ccc(-c2nc(-c3ccc(C(=O)O)c(F)c3)no2)cc1[N+](=O)[O-] [Example 11, 2-fluoro-4-[5-(2′-methyl-2-nitrobiphenyl-4-yl)-1,2,4-oxadiazol-3-yl]benzoic acid]
 | 1220 | > 30000 | CC1CCCCN1c1ccc(-c2nc(-c3ccc(C(=O)O)c(F)c3)no2)cc1[N+](=O)[O-] (stereo not shown) [Example 15, 2-fluoro-4-{5-[4-(2-methylpiperidin-1-yl)-3-nitrophenyl]-1,2,4-oxadiazol-3-yl}benzoic acid]
 | 294 | > 20000 | CC(C)Oc1ncc(-c2nc(-c3ccc(OCC(=O)O)c(F)c3)no2)cc1Cl [Example 53, {4-[5-(5-chloro-6-isopropoxypyridin-3-yl)-1,2,4-oxadiazol-3-yl]-2-fluorophenoxy}acetic acid]

Reference: patent publication US8202865B2, “Oxadiazole derivatives” (Merck Serono SA, priority 2007, dated 2012)
